The structures appear in SMILES notation. Marks after values point to notes of the source that are not given here.

Type in all cases: cell-based
In assay [1] the test system is rat primary hippocampal neurons injured with Aβ 1-42. Put plainly: Survival of MAP-2 neurons in primary culture of hippocampal neurons injured with Aβ 1-42. To be noted: for Survival: Aβ1-42 20 μM/2.5 μM, percentage of control, Example 3. On the procedure:
(§1) Rat hippocampal neurons were cultured as described by Callizot et al. (2013) J. Neurosci. Res. 91706-716. Pregnant female rats of 17 days gestation (Rats Wistar; Janvier Labs France) were killed using a deep anesthesia with CO2 chamber followed by a cervical dislocation. Then, fetuses were removed from the uterus and immediately placed in ice-cold L15 Leibovitz medium with a 2% penicillin (10,000 U/ml) and streptomycin (10 mg/ml) solution (PS) and 1% bovine serum albumin (BSA). Hippocampal neurons were treated for 20 min at 37° C. with a trypsin-EDTA solution at a final concentration of 0.05% trypsin and 0.02% EDTA. The dissociation was stopped by adding Dulbecco's modified Eagle's medium (DMEM) with 4.5 g/l of glucose, containing DNAse I grade 11 (final concentration 0.5 mg/ml) and 10% fetal calf serum (FCS). Cells were mechanically dissociated by three forced passages through the tip of a 10-ml pipette and then centrifuged at 515×g for 10 min at 4° C. The supernatant was discarded, and the pellet was resuspended in a defined culture medium consisting of Neurobasal medium with a 2% solution of B27 supplement, 2 mmol/l of L-glutamine, 2% of PS solution, and 10 ng/ml of brain-derived neurotrophic factor (BDNF). Viable cells were counted in a Neubauer cytometer, using the trypan blue exclusion test. […] The medium was changed every 2 days.
The hippocampal neurons were exposed with Aβ solutions (see below) after 17 days of culture. The Aβ1-42 preparation was done following the procedure described by Callizot et al. (2013) J. Neurosci. Res. 91706-716. Briefly, Aβ1-42 peptide was dissolved in the defined culture medium mentioned above, at an initial concentration of 40 μM. This solution was gently agitated for 3 days at 37° C. in the dark and immediately used after being properly diluted in culture medium to the concentrations used (20 μM (plate 1) or 2.5 μM (plate 2) corresponding to 2 μM or 0.25 μM of oligomers (AβO) respectively). […]
The compound was preincubated one hour before […] application. The following conditions were assessed:
(§2) After permeabilization with 0.1% of saponin, cells were incubated for 2 h with:
(§3) a) chicken polyclonal antibody anti microtubule-associated-protein 2 (MAP-2), diluted at 1/1000 in PBS containing 1% fetal calf serum and 0.1% of saponin (this antibody allows the specific staining of neuronal cell bodies and neurites; and allow the study of neuronal cell death and neurite network).
(§4) For each condition, 30 pictures (representative of the whole well area) per well were taken using ImageXpress (Molecular Devices) at 20× magnification. All images were taken with the same acquisition parameters. Analyses were performed automatically by using Custom Module Editor (Molecular Devices).
Total number of neurons (neuron survival, number of MAP-2 positive neurons)
(§5) Rat hippocampal neurons were cultured as described by Callizot et al. (2013) J. Neurosci. Res. 91:706-716. Briefly, pregnant female rats of 17 days gestation (Rats Wistar; Janvier Labs France) were killed using a deep anesthesia with CO2 chamber and a cervical dislocation. Then, fetuses were removed from the uterus and immediately placed in ice-cold L15 Leibovitz medium with a 2% penicillin (10,000 U/ml) and streptomycin (10 mg/ml) solution (PS) and 1% bovine serum albumin (BSA). The hippocampi were treated for 20 min at 37° C. with a trypsin-EDTA solution at a final concentration of 0.05% trypsin and 0.02% EDTA.

For assay [2] the test system is unchanged. Briefly: Neurite network of MAP-2 neurons in primary culture of hippocampal neurons injured with Aβ 1-42. Conditions: for Neurite network / Neurite/neuron: Aβ1-42 20 μM/2.5 μM, percentage of control, Example 3. Here is the method:
as §1
(§6) The hippocampal neurons were exposed with Aβ solutions (see below) after 17 days of culture. The Aβ1-42 preparation was done following the procedure described by Callizot et al. (2013) J. Neurosci. Res. 91706-716. Briefly, Aβ1-42 peptide was dissolved in the defined culture medium mentioned above, at an initial concentration of 40 μM. This solution was gently agitated for 3 days at 37° C. in the dark and immediately used after being properly diluted in culture medium to the concentrations used (20 μM (plate 1) or 2.5 μM (plate 2) corresponding to 2 μM or 0.25 μM of oligomers (AβO) respectively).
(§7) Donecopride fumarate was solved in culture medium and preincubated 1 h before Aβ application. Aβ1-42 preparation was added to a final concentration of 20 or 2.5 μM (=2 μM or 0.25 μM of AβO, evaluated by automatic Western Blot) diluted in control medium in presence of Donecopride.
(§8) Donecopride fumarate (Donecopride) was tested on one culture in a 96 well plate (6 wells per conditions). The compound was preincubated one hour before […] application. The following conditions were assessed:
as §2, §3, §4
Neurite network (in μm of MAP-2 positive neurons)
The neurite network is proportional to the number of neurons in the culture. The total neurite network was normalized by the number of neurons, in order to determine the average length of neurite per neurons.
as §5, with “EDTA. […]” for “EDTA.”

For assay [3] the test system is unchanged. Briefly: Number of synapses (PSD95/SYN overlap) in primary culture of hippocampal neurons injured with Aβ 1-42. To be noted: for Synapses: Aβ1-42 20 μM/2.5 μM, percentage of control, Example 3. On the procedure: as §1, §6, §7, §8, §2
a) mouse monoclonal antibody anti post synaptic density 95 kDa (PSD95) at a dilution of 1/100 in PBS containing 1% fetal calf serum and 0.1% of saponin.
b) Rabbit polyclonal antibody anti-synaptophysin (SYN) at the dilution of 1/100 in PBS containing 1% fetal calf serum and 0.1% of saponin.
For each condition, 40 pictures per well were taken using ImageXpress (Molecular Devices) with 40× magnification. All images were taken with the same acquisition parameters.
Synapses evaluation was performed automatically by using Custom module editor (Molecular Devices).
Total number of synapses (overlapping between PSD95/SYN).
To assess the formation of synapses, the distribution of PSD-95, a post-synaptic marker, and synaptophysin, a pre-synaptic marker, was studied. A structure positive for both PSD-95 and synaptophysin staining was considered as a synapse.
Rat hippocampal neurons were cultured as described by Callizot et al. (2013) J. Neurosci. Res. 91:706-716.

Where [4] appears, read: Aβ 1-42 injured hippocampal neurons, Example 3 step 1.

Consider `COc1cc2c(cc1OC)C(=O)C(CC1CCN(Cc3ccccc3)CC1)C2` (centres unmarked) [Donepezil], for which the “Lowest active dose in this model” value in assay [1] (Aβ 1-42 injured hippocampal neurons, any parameter of Table 7) stood at 1 nM. Also, the Survival in assay [1] (donepezil 100 pM) worked out at 69%; in assay [1] (donepezil 1 nM), 75%*; in assay [1] (donepezil 10 nM) it was 86%*; in assay [1] (donepezil 50 nM), 91%*; in assay [1] (donepezil 100 nM), 90%*; in assay [1] (donepezil 500 nM), 86%*. Also, the Survival in assay [1] (donepezil 1 μM) and in assay [1] (donepezil 10 μM) was 85%* in each case. Besides, the Neurite network in assay [2] (donepezil 100 pM) was 68%; in assay [2] (donepezil 1 nM), 75%*; in assay [2] (donepezil 10 nM), 79%*; in assay [2] (donepezil 50 nM) it was 85%*; in assay [2] (donepezil 100 nM), 85%*; in assay [2] (donepezil 500 nM), 87%*. The Neurite network was 90%* in assay [2] (donepezil 1 μM) and 88%* in assay [2] (donepezil 10 μM). Besides, the Neurite/neuron turned out to be 99% in assay [2] (donepezil 100 pM); 99% in assay [2] (donepezil 1 nM); 91% in assay [2] (donepezil 10 nM); 94% in assay [2] (donepezil 50 nM); 94% in assay [2] (donepezil 100 nM); 101% in assay [2] (donepezil 500 nM). Further, the results for the Neurite/neuron in assay [2] (donepezil 1 μM) and in assay [2] (donepezil 10 μM) were 105%* and 103%*, respectively. Further, the “Number of synapses normalized by the number of neurons (formation of new synapses)” value in assay [3] (Donepezil 1 μM, Aβ 1-42 injured hippocampal neurons, Example 1) was “had no effect”. Moreover, the Synapses in assay [3] (donepezil 100 pM) is 68%; in assay [3] (donepezil 1 nM), 72%; in assay [3] (donepezil 10 nM), 81%*; in assay [3] (donepezil 50 nM) it was 84%*; in assay [3] (donepezil 100 nM), 87%*; in assay [3] (donepezil 500 nM), 90%*. Also, the values for the Synapses in assay [3] (donepezil 1 μM) and in assay [3] (donepezil 10 μM) were 91%* and 93%*, respectively.

Consider `CCCCN1CCC(CCC(=O)c2cc(Cl)c(N)cc2OC)CC1` [RS67333, 1-(4-amino-5-chloro-2-methoxy-phenyl)-3-(1-butyl-4-piperidinyl)-1-propanone], for which the “Lowest protective active dose: neuronal survival” value in assay [1] (setting [4]) came to 50 nM. Besides, in assay [2] (setting [4]), the “Lowest protective active dose: neurite network” value is 10 nM. For the same molecule, the “Average length of neurites per neurons (FIG. 1C)” value in assay [2] (RS67333 alone, Aβ 1-42 injured hippocampal neurons, Example 3 step 1) is reported as “protective effects”. Besides, in assay [3] (setting [4]), the “Lowest protective active dose: synapse” value is 1 µM.

For the origin of these results see US20210338647A1, “Combination of Acetylcholinesterase Inhibitor and 5-HT4 Receptor Agonist As Neuroprotective Agent In the Treatment of Neurodegenerative Diseases” (UNIVERSITE DE CAEN NORMANDIE, priority 2018, published 2021).
